From patent publication US20110135574A1, “METHODS OF TREATING KIDNEY DISEASE” (priority 2009, published 2011)
Entries after “also recorded” stand apart in the source; their conditions may differ.

Columns and labels:
podocytes = assay: Stress fiber quantification in podocytes, TRPC/Rho GTPase coupling (FIG. 4E); assay type: cell-based
Method: Lentivirus construction and shRNA-mediated gene silencing. Podocytes were exposed to lentivirus encoding validated shRNA sequences (Open Biosystems) for 24 hours in cell culture medium supplemented with 4 μg/ml polybrene (Chemicon International). For all experiments, parallel infections with the enhanced GFP virus in the VVPW vector, scrambled shRNA, or polybrene alone were used as control. All experiments were performed at least 48 hours post-infection of podocytes that were thermoshifted 5-7 days prior to the assay. Lentiviral particles pseudotyped with the vesicular stomatitis virus glycoprotein (VSV-G) were constructed according to the manufacturer's protocol. Briefly, low-passage HEK293T cells were transfected with the pLKO.1 plasmid encoding the shRNA, the packaging plasmid pMDG.2 ΔR8.91, and the envelope plasmid pCMV-VSV-G at a ratio of 10:10:1 using the Minis Trans-IT LT-1 transfection reagent. Enhanced GFP encoded in the pLVX vector was used to assess transfection efficiency. The medium was replaced with the virus harvest media 18 hours post-transfection, and viral particles were collected twice at 24 hour intervals thereafter. […]
(§1) Immunocytochemistry, wound healing assays, and confocal imaging. […] For double immunostaining, podocytes were incubated with antibodies to Paxillin (Chemicon International) and detected with Alexa-488-conjugated secondary antibodies (Molecular Probes). […]

AT1R podocytes [1] = assay: Whole-cell patch-clamp recording of AngII-evoked TRPC-like current; assay type: cell-based, rat; conditions: AngII 500 nM
Method: (§2) Electrophysiology. Patch-clamp electrophysiology (Axopatch 200B amplifier, Axon Instruments, CA) was performed in the whole-cell configuration. Briefly, fully differentiated podocytes were plated on glass coverslips at low density and placed in the recording chamber. The patch pipettes with resistances of 3-4 MΩ were pulled from borosilicate glass with a P-97 puller (Sutter Instrument) and filled with a solution containing (in mM): 135 CH3SO3Cs, 10 CsCl, 3 MgATP, 0.2 NaGTP, 0.2 EGTA, 0.13 CaCl2, and 10 HEPES, pH 7.3 with CsOH. The bath solution contained (in mM): 135 CH3SO3Na, 5 CsCl, 2 CaCl2, 1 MgCl2, 10 HEPES, and 10 Glucose, pH 7.4 with NaOH. Angiotensin (500 nM) was applied to the bath solution. Whole-cell currents were recorded from −100 mV to 100 mV voltage ramps over 150 ms and a holding potential of zero. For single channel recordings in the outside-out configuration, we utilized a voltage step protocol from −100 mV to +100 mV delivered at 20 mV intervals and a holding potential of −60 mV. Average pipette resistance filled with pipette solution was 5-10 MΩ. Data were sampled at 10 kHz and filtered at 5 kHz. […] Ensemble averages were expressed as open channel probabilities (average current divided by unitary current amplitude and # of channels in each patch) and plotted as histograms. All data were acquired at room temperature and analyzed using pClamp 10 (Axon Instruments, CA).

AT1R podocytes [2] = assay: Stress fiber (phalloidin) and focal adhesion (paxillin) quantification after AngII, AT1R podocytes; assay type: cell-based, rat; conditions: in words
Method: (§3) Podocyte cell culture. Wild-type mouse podocytes (passages 7 to 18) derived from the Immortomouse stably expressing the temperature-sensitive SV40 T-antigen were generously provided by Peter Mundel (University of Miami School of Medicine, FL) and cultured as previously described (Asanuma et al., Nat Cell Biol 8, 485-491, 2006). Briefly, podocytes were plated on collagen-coated cell culture dishes (100 μg/ml Type I Collagen, Gibco Invitrogen) and maintained at 33° C. in a humidified atmosphere of 5% CO2 in RPMI1640 medium supplemented with 10% heat-inactivated FBS, 100 U/ml Penicillin, 100 μg/ml streptomycin, and 100 U/ml Interferon-γ (IFN-γ). Under these permissive culture conditions, the podocytes remain in the undifferentiated, replication-competent state. Podocytes were thermoshifted to 38° C. and maintained in IFN-γ-free culture medium to induce growth arrest and differentiation. Podocyte-specific markers for differentiation are expressed within 7 days of culture in these non-permissive conditions. […]
as §1

AT1R podocytes [3] = assay: Fluo-3 calcium imaging of AngII-evoked Ca2+ transients; assay type: cell-based, rat; conditions: Losartan 200 nM; AngII 500 nM
Method: as §3
Calcium imaging. […] Fluorescence intensity was normalized to maximal fluorescence obtained at the end of each experiment by the application of 100 μM Ionomycin, based on the formula F=(Fmax (angiotensin)−Fmin)/(Fmax (ionomycin)−Fmin). Measurements were analyzed using Zeiss Pascal Software and Microsoft Xcel, and images were prepared in Adobe Photoshop and NIH Image J.

[4] = target: T1, TRPC5 and TRPC6 channels in AT1R podocytes (Rattus norvegicus, UniProt Q99N78); assay: Outside-out single channel recordings of TRPC5-like and TRPC6-like conductances; assay type: cell-based; conditions: La3+ 100 μM; in words
T1 construct: endogenous in cells; host or cells: immortalized rat podocytes stably expressing the AngII Type 1 Receptor (AT1R podocytes)
T1 sequence (Q99N78 1-930): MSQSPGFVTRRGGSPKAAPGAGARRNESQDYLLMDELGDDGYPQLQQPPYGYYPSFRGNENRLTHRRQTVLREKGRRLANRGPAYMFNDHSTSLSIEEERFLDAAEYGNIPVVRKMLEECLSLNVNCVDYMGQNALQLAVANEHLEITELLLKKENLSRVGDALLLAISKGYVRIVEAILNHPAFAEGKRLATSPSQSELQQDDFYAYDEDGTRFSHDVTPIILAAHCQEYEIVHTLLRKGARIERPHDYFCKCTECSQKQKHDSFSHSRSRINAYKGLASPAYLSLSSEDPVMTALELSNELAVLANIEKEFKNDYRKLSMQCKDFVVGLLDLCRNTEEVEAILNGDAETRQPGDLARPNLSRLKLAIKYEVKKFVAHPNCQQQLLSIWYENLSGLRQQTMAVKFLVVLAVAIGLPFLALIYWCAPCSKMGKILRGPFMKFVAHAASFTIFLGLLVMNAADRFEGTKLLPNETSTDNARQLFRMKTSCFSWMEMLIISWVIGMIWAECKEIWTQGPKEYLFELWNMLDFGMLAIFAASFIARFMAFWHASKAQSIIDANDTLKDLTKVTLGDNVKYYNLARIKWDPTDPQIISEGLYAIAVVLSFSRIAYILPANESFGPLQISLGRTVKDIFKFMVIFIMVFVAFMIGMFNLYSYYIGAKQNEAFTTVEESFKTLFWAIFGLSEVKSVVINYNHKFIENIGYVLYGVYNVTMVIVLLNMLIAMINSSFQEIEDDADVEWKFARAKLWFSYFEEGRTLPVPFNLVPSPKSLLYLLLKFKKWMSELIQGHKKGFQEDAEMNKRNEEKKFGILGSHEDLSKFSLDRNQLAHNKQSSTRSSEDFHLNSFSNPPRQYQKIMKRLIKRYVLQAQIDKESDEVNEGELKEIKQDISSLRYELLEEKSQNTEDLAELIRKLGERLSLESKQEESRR
Method: as §2

[5] = target: T2, TRPC5 and TRPC6 channels in AT1R podocytes (Rattus norvegicus, UniProt Q8VD38); assay: as above; assay type: cell-based; conditions: La3+ 100 μM; after AngII 500 nM; Vstep +100 mV
T2 construct: endogenous in cells; host or cells: immortalized rat podocytes stably expressing the AngII Type 1 Receptor (AT1R podocytes)
T2 sequence (Q8VD38 1-974): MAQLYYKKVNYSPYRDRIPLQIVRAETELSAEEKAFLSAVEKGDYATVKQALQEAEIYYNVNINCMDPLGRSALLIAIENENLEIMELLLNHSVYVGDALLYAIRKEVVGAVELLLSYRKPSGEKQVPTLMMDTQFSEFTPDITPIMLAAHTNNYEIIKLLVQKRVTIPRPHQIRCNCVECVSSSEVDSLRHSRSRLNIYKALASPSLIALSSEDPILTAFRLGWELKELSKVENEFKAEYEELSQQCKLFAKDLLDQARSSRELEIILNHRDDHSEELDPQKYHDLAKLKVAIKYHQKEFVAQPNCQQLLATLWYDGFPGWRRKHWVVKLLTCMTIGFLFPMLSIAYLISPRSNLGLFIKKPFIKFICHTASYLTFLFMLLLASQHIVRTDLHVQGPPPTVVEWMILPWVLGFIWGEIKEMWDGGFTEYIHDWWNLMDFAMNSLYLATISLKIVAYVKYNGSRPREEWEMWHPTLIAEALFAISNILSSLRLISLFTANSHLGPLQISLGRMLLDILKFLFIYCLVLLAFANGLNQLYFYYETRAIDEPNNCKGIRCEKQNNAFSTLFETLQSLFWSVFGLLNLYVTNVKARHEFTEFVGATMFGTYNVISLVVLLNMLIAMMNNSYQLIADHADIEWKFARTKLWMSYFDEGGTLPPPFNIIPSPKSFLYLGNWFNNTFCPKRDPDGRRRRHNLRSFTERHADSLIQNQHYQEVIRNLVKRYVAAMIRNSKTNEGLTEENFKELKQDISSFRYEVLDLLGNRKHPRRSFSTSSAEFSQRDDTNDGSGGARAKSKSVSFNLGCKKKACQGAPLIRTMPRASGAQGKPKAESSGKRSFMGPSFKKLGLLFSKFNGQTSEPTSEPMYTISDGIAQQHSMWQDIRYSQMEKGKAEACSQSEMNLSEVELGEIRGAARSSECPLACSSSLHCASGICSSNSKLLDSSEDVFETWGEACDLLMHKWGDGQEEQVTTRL
Method: as §2

Question: For C[C@@H](N)[C@H]1CC[C@H](C(=O)Nc2ccncc2)CC1 [Y27632], which stress fibers (podocytes; Y27632 10 μM in TRPC5 depleted cells (22±3 without)) is on record?
Answer: Its stress fibers is 6±1.

Question: Which results are given for “Angiotensin II (DRVYIHPF; Angiotensin-2; UniProt P01019 25-32, looked up) [AngII]”?
Answer: normalized peak current (AT1R podocytes [1]; at +100 mV): 20±7 pA/pF; normalized peak current (AT1R podocytes [1]; at -100 mV): 10±4 pA/pF

Question: What does the source list for CCCCc1nc(Cl)c(CO)n1Cc1ccc(-c2ccccc2-c2nn[nH]n2)cc1 [Losartan]?
Answer: stress fiber formation (AT1R podocytes [2]; Losartan 200 nM prior to AngII exposure): induced robust stress fiber formation; focal adhesions (Paxillin immunostaining) (AT1R podocytes [2]; Losartan-treated vs AngII-treated controls): increase in focal adhesions; stress fibers (podocytes; cells pre-treated with Losartan, Scr shRNA controls 16±1): 25±1; decrease of the amplitude of the AngII-evoked Ca2+ transient (AT1R podocytes [3]): more than 70%

Question: Which “effect on AngII-evoked single channel conductances [2] and [3] / single channel activity” value [4] does the source give for [La+3] [La^3+, Lanthanum] here?
Answer: The value was “abolished; also recorded: suppressed”.

Question: What about the “single channel conductance [4] unmasked” value [5] of the same molecule?
Answer: Its value is 33 pS.
